According to paper PMC9743095 (Journal of Medicinal Chemistry, 2022):

What was measured:
Experiment in all cases: cells
Format in all cases: cell-based
HL-60 = conditions: Homo sapiens, HL-60, 72 h; for CC50: read-out: LC50; for Emax: read-out: MI%
Experimental: (§1) The assay was contracted and carried out by WuXi AppTec (Shanghai) Co., Ltd. The tumor cell lines CCRF-CEM, HL-60, KG-1, MOLT-4, K562, MV4-11, THP-1, HEL92.1.7, NCI-H929, RPMI-8226, Jurkat, Z138, RL, HS445, HepG2, MCF-7, Bx-PC-3, HT29, MIA PaCa-2, and SW620 were seeded at cell densities of […] 10^3 cells/well in a 96-well plate the day before drug incubation. Then, the plates were incubated for 72 h with the different concentrations of compound to be tested. After the incubation period, 50 μL of MTS was added and the tumor cells were incubated for 4 h at 37 °C. The data were read and collected by a Spectra Max 340 absorbance microplate reader. The compounds were tested in duplicate with nine serial concentrations (3.16-fold titrations with 198 μM as the highest concentration), and the data were analyzed by XLfit software.

K562 = conditions: Homo sapiens, K562, 72 h; for CC50: read-out: LC50; for Emax: read-out: MI%
Experimental: as §1

CCRF-CEM = conditions: Homo sapiens, 72 h; for CC50: read-out: LC50; for Emax: read-out: MI%
Experimental: as §1

MOLT-4 = conditions: Homo sapiens, MOLT-4, 72 h; for CC50: read-out: LC50; for Emax: read-out: MI%
Experimental: as §1

KG-1 = conditions: Homo sapiens, KG-1, 72 h, read-out: LC50
Experimental: as §1

HepG2 = conditions: Homo sapiens, HepG2, 72 h; for CC50: read-out: LC50; for Emax: read-out: MI%
Experimental: as §1

MCF-7 = conditions: Homo sapiens, MCF7, 72 h; for CC50: read-out: LC50; for Emax: read-out: MI%
Experimental: as §1

Compound	CC50 (HL-60) [µM]	Emax (HL-60) [%]	CC50 (K562) [µM]	Emax (K562) [%]	CC50 (CCRF-CEM) [µM]	Emax (CCRF-CEM) [%]	CC50 (MOLT-4) [µM]	Emax (MOLT-4) [%]	CC50 (KG-1) [µM]	CC50 (HepG2) [µM]	CC50 (MCF-7) [µM]	Emax (MCF-7) [%]	Emax (HepG2) [%]
C[C@H](NP(=O)(Oc1ccccc1)O[C@@H]1C[C@@H](COP(=O)(N[C@H](C)C(=O)OCc2ccccc2)Oc2ccccc2)O[C@H]1n1cnc2c(N)ncnc21)C(=O)OCc1ccccc1 (stereo partly drawn) [Compound 5a]	143	57	26.3	78	64.8	65	62.9	75	112	85.5	10.3	97	
C[C@H](NP(=O)(Oc1cccc2ccccc12)O[C@@H]1C[C@@H](COP(=O)(N[C@H](C)C(=O)OCc2ccccc2)Oc2cccc3ccccc23)O[C@H]1n1cnc2c(N)ncnc21)C(=O)OCc1ccccc1 (stereo partly drawn) [Compound 5b]	78.6	99	25.4	87	27.1	99	14.8	100	66.3	30.2	5.05	99	90
C[C@H](NP(=O)(Oc1ccccc1)O[C@@H]1C[C@@H](CO)O[C@H]1n1cnc2c(N)ncnc21)C(=O)OCc1ccccc1 (stereo partly drawn) [Compound 6a]	31.1	80	26.9	89	17.6	99	18.6	100	79.4	83.1	5.06	94	55
C[C@H](NP(=O)(N[C@@H](C)C(=O)OCc1ccccc1)OC[C@@H]1C[C@@H](O)[C@H](n2cnc3c(N)ncnc32)O1)C(=O)OCc1ccccc1 [Compound 9]	16.5	100	24.3	97	7.03	100	3.52	100	34.1	157	13	97	55
